{
  "source": "patent US11324729B2",
  "about": "“NSD family inhibitors and methods of treatment therewith” (The Regents of the University of Michigan, priority 2017, dated 2022)",
  "key": {"[1]": {"molecular_target": "T1, NSD1 (Homo sapiens, UniProt Q96L73)", "T1 construct": "6 μM of 159 was incubated with 1 mM of NSD1 SET domain for 8 hours", "T1 sequence (Q96L73 1852-2082 limits assumed)": "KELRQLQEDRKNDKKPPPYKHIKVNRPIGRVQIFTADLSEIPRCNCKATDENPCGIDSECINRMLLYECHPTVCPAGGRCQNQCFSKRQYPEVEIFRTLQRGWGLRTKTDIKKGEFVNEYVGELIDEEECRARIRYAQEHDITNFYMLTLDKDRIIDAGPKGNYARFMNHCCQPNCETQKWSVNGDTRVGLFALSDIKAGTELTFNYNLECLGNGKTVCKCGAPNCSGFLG", "assay": "Mass spectrometry detection of covalent/irreversible binding to NSD1", "procedure": "(§1) 10 μM 151 was incubated with NSD1 for 20 h. B. HSQC spectrum of 150 μM NSD1 with 300 μM 151.\n6 μM of 159 was incubated with 1 mM of NSD1 SET domain for 8 hours.\nFIG. 7. […] Asterisk denotes covalent protein adduct with 198."}, "[2]": {"molecular_target": "NSD1 (Homo sapiens, UniProt Q96L73)", "assay": "HSQC NMR spectrum of NSD1 with compound", "assay_type": "binding", "conditions": "150 μM NSD1 with 300 μM compound; including Cys2062", "procedure": "as §1"}, "[3]": {"molecular_target": "T2, NSD1 (1753-2095 fragment) (Homo sapiens, UniProt Q96L73)", "T2 construct": "expressed in transfected cells; host or cells: HeLa cells", "T2 sequence (Q96L73 1753-2095)": "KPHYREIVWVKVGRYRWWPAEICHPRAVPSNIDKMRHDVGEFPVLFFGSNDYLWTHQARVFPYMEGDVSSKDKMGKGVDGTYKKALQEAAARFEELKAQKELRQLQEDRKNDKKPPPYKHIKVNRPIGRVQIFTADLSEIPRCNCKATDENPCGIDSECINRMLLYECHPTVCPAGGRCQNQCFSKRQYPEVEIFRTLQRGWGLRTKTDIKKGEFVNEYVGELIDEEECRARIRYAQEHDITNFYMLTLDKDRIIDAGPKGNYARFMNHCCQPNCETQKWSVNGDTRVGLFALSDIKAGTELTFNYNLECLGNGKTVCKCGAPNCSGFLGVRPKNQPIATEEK", "assay": "CETSA assay in HeLa cells", "assay_type": "cell-based", "conditions": "HeLa cells treated with 5 μM compound"}, "[4]": {"system": "Nup98-NSD1 cells", "assay": "MTT growth inhibition assay, Nup98-NSD1 cells", "assay_type": "cell-based", "conditions": "3, 7 and 10 days"}, "[5]": {"system": "HM-2 cells", "assay": "MTT proliferation assay, control HM-2 cells", "assay_type": "cell-based"}, "[6]": {"system": "Nup98-NSD1 cells", "assay": "Cytospins, differentiation of Nup98-NSD1 cells", "assay_type": "cell-based"}, "[7]": {"system": "Nup98-NSD1 subcutaneous model", "assay": "Nup98-NSD1 subcutaneous leukemia model in mice", "assay_type": "in vivo", "conditions": "25 mg/kg q.d., I.P.", "procedure": "FIG. 6A-F. Pharmacokinetics and efficacy of 159 in Nup98-NSD1 leukemia model. A. Pharmacokinetics studies in mice treated with 25 mg/kg of 159 using I.P. administration. B. Efficacy in Nup98-NSD1 subcutaneous model. Mice were treated with 25 mg/kg q.d., I.P. C. Representative tumors from vehicle and 159 treated mice. […] E. Immuno-histochemistry analysis of H3K36me2 level in tumor samples of mice treated with vehicle (top) and 159 (bottom). […] F. Body weight of 159 treated animals."}, "[8]": {"system": "MCF7", "assay": "MTT viability, 7 days treatment, MCF7", "assay_type": "cell-based", "conditions": "Homo sapiens, 168 h, MCF7, 7 days treatment", "excerpt": "(§2) FIG. 8. Activity of NSD inhibitors in breast cancer cell lines."}, "[9]": {"system": "ZR-75-1", "assay": "MTT viability, 7 days treatment, ZR-75-1", "assay_type": "cell-based", "conditions": "Homo sapiens, 168 h, ZR-75-1, 7 days treatment", "excerpt": "as §2"}, "[10]": {"system": "MDA-MB-468", "assay": "MTT viability, 7 days treatment, MDA-MB-468", "assay_type": "cell-based", "conditions": "Homo sapiens, 168 h, MDA-MB-468, 7 days treatment", "excerpt": "as §2"}, "[11]": {"system": "SUM44", "assay": "Viability, 7 days treatment, SUM44", "assay_type": "cell-based", "conditions": "168 h; SUM44, 7 days treatment", "excerpt": "as §2"}},
  "note": "Like-named read-outs stand apart in the source and are kept apart here.",
  "data": [
    {"compound": "CC1CN1c1cc(O)c2nc(N)sc2c1", "note": "(stereo not shown) [Compound 151]", "values": [
      {"measurement": "Irreversible binding to NSD1 detected by MS", "setting": "[1]; 10 μM compound incubated with NSD1 for 20 h", "result": "Irreversible binding"},
      {"measurement": "HSQC spectrum perturbation of NSD1 residues", "setting": "[2]", "result": "Several perturbed residues"}
    ]},
    {"compound": "Nc1nc2c(O)cc(N3CC3Cc3ccccc3Cl)cc2s1", "note": "(stereo not shown) [Compound 159, 2-Amino-6-(2-(2-chlorobenzyl)aziridin-1-yl)benzo[d]thiazol-4-ol]", "values": [
      {"measurement": "Covalent engagement of NSD1 by mass spectrometry", "setting": "[1]; 6 μM compound incubated with 1 mM of NSD1 SET domain for 8 hours", "result": "binds covalently"},
      {"measurement": "CETSA stabilization of NSD1 (1753-2095 fragment)", "setting": "[3]", "result": "stabilization of NSD1"},
      {"measurement": "Growth inhibition of Nup98-NSD1 cells (MTT)", "setting": "[4]", "result": "time-dependent (3, 7 and 10 days) growth inhibition"},
      {"measurement": "Proliferation of control HM-2 cells (MTT)", "setting": "[5]", "result": "does not inhibit proliferation"},
      {"measurement": "Differentiation of Nup98-NSD1 cells (cytospins)", "setting": "[6]", "result": "differentiation of Nup98-NSD1 cells induced"},
      {"measurement": "Expression of Hoxa7 in tumors", "setting": "[7]", "result": "reduced expression of Hoxa7"},
      {"measurement": "H3K36me2 level in tumor samples (immuno-histochemistry)", "setting": "[7]", "result": "Strong reduction of H3K36me2 level"}
    ]},
    {"compound": "C=CS(=O)(=O)NCc1cccc(NCC#Cc2cc(O)c3nc(N)sc3c2)c1F", "note": "[Compound 225]", "values": [
      {"measurement": "GI50", "setting": "[8]; read-out: GI50, viability", "result": 487, "unit": "nM"},
      {"measurement": "GI50", "setting": "[9]; read-out: GI50, viability", "result": 53, "unit": "nM"},
      {"measurement": "GI50", "setting": "[10]; read-out: GI50, viability", "result": 31, "unit": "nM"},
      {"measurement": "GI50", "setting": "[11]", "result": 341, "unit": "nM"}
    ]},
    {"compound": "C=CS(=O)(=O)NCc1cccc(NCC#Cc2cc(O)c3nc(N)sc3c2)c1Cl", "note": "[Compound 230]", "values": [
      {"measurement": "GI50", "setting": "[8]; read-out: GI50, MTT viability", "result": 1500, "unit": "nM"},
      {"measurement": "GI50", "setting": "[9]; read-out: GI50, MTT viability", "result": 100, "unit": "nM"},
      {"measurement": "GI50", "setting": "[10]; read-out: GI50, MTT viability", "result": 35, "unit": "nM"}
    ]}
  ]
}
